Tests used:
[1] = aqueous solubility of cilostazol Form A; format: physicochemical; conditions: Form A as prepared by the procedures of the '479 patent
[2] = bioavailability of cilostazol Form A; format: in vivo; conditions: Form A as prepared by the procedures of the '479 patent
[3] = stability of the polymorphic form; format: physicochemical
[4] = relative solubility inferred from DSC melting behaviour; format: physicochemical; conditions: suggested by lower melting point / weaker crystal packing forces in DSC thermogram (FIG. 8)
From the text: (§1) Characterization of Form A of cilostazol, Form B of cilostazol, and Form C of cilostazol was further completed using DSC thermograms, shown in FIGS. 3, 4, and 5, respectively, with DSC thermograms for combinations of Form A and Form B; Form B and Form C; and Forms A, B, and C are shown in FIGS. 6, 7, and 8 respectively. DSC data were generated using a Mettler-Toledo DSC 821^e (Columbus, Ohio) with a Julabo FT900 intercooler chiller (Julabo Company; Allentown, Pa.). In general, samples were analyzed in a vented, sealed aluminum pan. Because the endothermic peak may vary depending upon the rate of heating and the calibration and precision of the instrument, with the amount of peak variation dependent upon the heating rate used, all thermograms included herein were run under the same, consistent conditions: heating at 10° C. per minute under a nitrogen purge at 40 mL/minute.
FIG. 8 illustrates a DSC thermogram for the combination of Form A, Form B and Form C having a second heating cycle with a maximum temperature of about 110° C. with a holding time of about 30 minutes. The peaks in the third heating cycle show a Form A to Form B to Form C peak area ratio of approximately 8:2:1, respectively, with the relative amount of Form A, Form B and Form C further variable on the heat of enthalpy of each polymorphic form.

[5] = solid state phase transformation of disturbed/stressed sample on heating by DSC; format: physicochemical; conditions: sample disturbed (scratching/stress), heated by DSC from 30° C. to approximately 200° C. at 10° C. per minute
From the text: as §1, with “mL/minute. The resultant sample of Example 1A was disturbed with scratching, which caused the cilostazol sample to undergo a solid state phase transformation at approximately 119° C. followed by an endotherm of melt at approximately 160° C. (Form A) during heating by DSC from 30° C. to approximately 200° C. at 10° C. per minute. When the sample is stressed and reheated (as detailed in Example 2A), the sample undergoes a solid state phase transformation at approximately 147° C. followed by an endotherm of melt at about 160° C. […]” for “mL/minute.”

| SMILES | aqueous solubility [1] | bioavailability [2] | stability of the crystalline form [3] | solubility relative to Form A [4] | solid state phase transformation temperature (to Form A) [5] |
| --- | --- | --- | --- | --- | --- |
| O=C1CCc2cc(OCCCCc3nnnn3C3CCCCC3)ccc2N1 [Form A, 6-[4-(1-cyclohexyl-1H-tetrazol-5-yl)butoxy]-3,4-dihydro-2(1H)-quinolinone] | low | low | – | – | – |
| O=C1CCc2cc(OCCCCc3nnnn3C3CCCCC3)ccc2N1 [Form B, 6-[4-(1-cyclohexyl-1H-tetrazol-5-yl)butoxy]-3,4-dihydro-2(1H)-quinolinone] | – | – | stable | more soluble than Form A | approximately 119 °C |
| O=C1CCc2cc(OCCCCc3nnnn3C3CCCCC3)ccc2N1 [Form C, 6-[4-(1-cyclohexyl-1H-tetrazol-5-yl)butoxy]-3,4-dihydro-2(1H)-quinolinone] | – | – | stable | more soluble than Form A | approximately 147 °C |

— patent US6596871B2, “Polymorphic forms of 6-[4-(1-cyclohexyl-1h-tetraol-5-yl)butoxy]-3,4-dihydro-2(1H)-quinolinone” (priority 2001, dated 2003)
